Where two headings read alike, the source gives them in different places.
Columns and labels:
WI38 cells [1] = experiment: Triglyceride uptake assay ([3H]triolein) in WI38 cells; type: cell-based, human
Description: The human embryonic cell line WI38 was obtained from American Type Culture Collection (Rockville, Md.). Cells were grown in MEM plus 10% FBS at 37° C. in six-well plates, four-well slides, and 60- and 100-mm culture dishes as needed.
The method used to quantitate triglyceride uptake by fetal rat lung fibroblasts has been described previously (Torday et al. (1995) Biochim Biophys Acta 1254: 198-206). Briefly, culture medium was replaced with DMEM containing 20% adult rat serum mixed with [3H]triolein (5 μCi/ml). The cells were incubated at 37° C. in 5% CO2+balance air for 4 h. At the termination of the incubation, the medium was decanted, the cells were rinsed twice with 1 ml of ice-cold MEM, and the cells were removed from the culture plate after a 5- to 10-min incubation with 2 ml of a 0.05% trypsin solution. An aliquot of the cell suspension was taken for protein assay (Bradford (1976) Anal Biochem 72: 248-254), and the remaining cell suspension was extracted for neutral lipid content.

PTHrP receptor = target: T1, PTHrP receptor (Homo sapiens, UniProt Q03431); experiment: PTHrP receptor binding assay; conditions: nicotine 1×10^−6 M
T1 construct: 10-12 μg membrane protein; endogenous in cells; host or cells: WI38 human embryonic lung fibroblasts (inferred; the assay text only says membrane protein)
T1 sequence (Q03431 27-593): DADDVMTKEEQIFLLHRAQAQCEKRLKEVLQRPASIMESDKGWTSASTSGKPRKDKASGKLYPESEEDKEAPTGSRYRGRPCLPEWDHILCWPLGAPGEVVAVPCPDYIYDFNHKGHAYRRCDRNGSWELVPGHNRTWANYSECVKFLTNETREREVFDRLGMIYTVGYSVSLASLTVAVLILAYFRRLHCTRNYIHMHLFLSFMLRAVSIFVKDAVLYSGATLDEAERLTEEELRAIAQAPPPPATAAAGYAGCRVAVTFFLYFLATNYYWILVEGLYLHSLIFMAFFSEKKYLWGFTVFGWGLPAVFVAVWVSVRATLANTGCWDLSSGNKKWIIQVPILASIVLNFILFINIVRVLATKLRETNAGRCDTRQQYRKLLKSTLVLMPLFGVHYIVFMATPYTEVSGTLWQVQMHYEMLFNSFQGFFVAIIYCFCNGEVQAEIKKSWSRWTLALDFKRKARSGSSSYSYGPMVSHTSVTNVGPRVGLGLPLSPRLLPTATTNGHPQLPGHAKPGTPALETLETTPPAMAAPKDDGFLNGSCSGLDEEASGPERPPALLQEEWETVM
Description: The receptor binding assay was carried out as previously described (Torday and Rehan (2002) Am. J. Physiol. Lung Cell Mol. Physiol. 283: L130-L135; Torday and Rehan (2003) Cell Biochem Biophys 37: 235-246). The assay mixture, in a total volume of 0.1 ml, contained 50 mM Tris.HCl (pH 7.4), 2 mM dithiothreitol, 10 mM EDTA, 10 μg/ml each of protease inhibitors (leupeptin, pepstatin, antipain, and aprotinin), 0.5 mM phenylmethylsulfonyl fluoride, 10 mg/ml BSA, 5 mM MgCl2, […] [1251]-Tyr34-PTHrP-(1-34) (specific activity 1,064 Ci/mmol), 10-12 μg membrane protein, and 1×10-10 to 1×10^−6 M PTHrP-(1-34). Triplicate samples were incubated for 30 min at 30° C. Reactions were stopped by the addition of 0.1 ml of homogenization buffer containing 20 mg/ml of BSA and placed in ice-cold water for 30 min, followed by centrifugation at 15,000 g for 1 min. The supernatant was aspirated, and the pellet was counted for radioactive content with a gamma counter (model 1470; Wallace, Gaithersburg, Md.). Nonspecific binding was determined in the presence of 1 μM nonradioactive PTHrP-(1-34). Specific binding of [^125I]-Tyr34-PTHrP-(1-34) was calculated as total binding minus nonspecific binding and expressed as femtomoles per milligrams of protein. […] The effect of nicotine (1×10^−6 M) on PTHrP receptor binding was examined without and with the nACh receptor antagonists D-tubocurarine, α-bungarotoxin, or mecamylamine (1×10^−9 to 1×10^−6 M).

WI38 cells [2] = test system: WI38 cells
WI38 cells [3] = experiment: Reversal experiment, triglyceride (triolein) uptake by WI38 cells; type: cell-based, human; conditions: nicotine 7 days
WI38 cells [4] = experiment: Reversal of nicotine-induced LIF-to-MYF transdifferentiation in WI38 cells, Western analysis
Description: The human embryonic cell line WI38 was obtained from the American Type Culture Collection (Rockville, Md.). Cells were grown in minimum essential medium (MEM) +10% fetal bovine serum at 37° C. in six-well plates, two well slides, and 60-mm and 100-mm culture dishes, as needed. […] Subsequently, the cells were treated with rosiglitazone (RGZ) (1×10^−5 M) (a PPARγ agonist), PTHrP (5×10^−7 M), or DBcAMP (1×10^−5 M) for 7 days, and the expression of PTHrP receptor, PPARγ, ADRP, calponin, and cSMA was determined by Western analysis and immunohistochemistry. Simultaneously, fibroblast function was characterized by measuring their capacity to take up triglycerides. Some experiments were performed in the presence of a specific PPARγ antagonist, GW9662. Medium containing fresh chemicals was added daily, and at the end of the experimental period the cells were processed as needed.
For Western blotting, cells were lysed using an extraction buffer [10 mM tris (hydroxymethyl) aminomethane (Tris, pH 7.5), 0.25 M sucrose, 1 mM EDTA, 5 mM benzamidine, 2 mM phenylmethylsulfonyl fluoride, and 10 (j.tg/ml each of pepstatin A, aprotinin, and leupeptin], and centrifuged at 140 g for 10 min (4° C.). Equal amounts of the protein (25 μg) from the supernatant were dissolved in electrophoresis sample buffer and were subjected to sodium dodecyl sulfate-polyacrylamide (4%-12% gradient) gel electrophoresis (SDS-PAGE) followed by electrophoretic transfer to a nitrocellulose memane. The nonspecific binding of antibody was blocked by washing with Tris-buffered saline (TBS) containing 0.1% Tween 20 (TBST) and 5% milk for 1 h. The blot was then subjected to two brief washes with TBST plus 0.5% Tween 20, incubated in TBST plus 0.1% Tween 20 and the specific primary antibodies (PPARγ 1:2000, Alexis Biochemicals, San Diego, Calif.; cSMA 1:50,000, Sigma, St. Louis, Mo.: ADRP 1:3000) overnight at 4° C. Blots were then washed in TBST plus 0.1% Tween 20 and then incubated for 1 h in secondary antibody, washed, and developed with a chemiluminescent substrate [enhanced chemiluminescence (ECL); Amersham, Arlington Heights, Ill.] following the manufacturer's protocol. The densities of the specific protein bands were quantified using a scanning densitometer (Eagle Eye II still video system, Stratagene, La Jolla, Calif.).

ATII cells [5] = test system: ATII cells
ATII cells [6] = conditions: nicotine 24 h
ATII cells [7] = experiment: Phospholipid synthesis ([3H]choline incorporation into saturated phosphatidylcholine) by ATII cells after in utero nicotine; type: in vivo, Sprague-Dawley rat; conditions: nicotine 1 mg/kg in utero; vs control, P<0.05, n=6
Description: Incorporation of [methyl-3H]choline chloride (NEN Dupont) into saturated phosphatidylcholine was determined in monolayers of cultured explants and ATII cells. […] After incubation, explants and cells were washed three times with ice-cold PBS. The explants and the scraped cells were thoroughly homogenized, and the cellular lipids were extracted with chloroform-methanol (2:1) (Bligh and Dyer (1959) Can. J. Biochem. Physiol., 37: 911-917). The organic phase was dried under a stream of nitrogen at 60° C., resuspended in 0.5 ml of carbon tetrachloride containing 3.5 mg of osmium tetroxide, and left at room temperature for 15 min. The reaction mixture was redried under nitrogen and resuspended in 70 μl of chloroform-methanol (9:1, vol/vol). The lipid extracts were transferred to silica gel plates (Kodak, Rochester, N.Y.) and developed in a chloroform-methanolwater (65:25:4) solvent system. Pure dipalmitoyl phosphatidylcholine was used as the chromatographic standard. The developed plates were stained with bromothymol blue, blotted, and vacuum dried for 5 min at 90° C. Chromatogram spots corresponding to the migration of saturated phosphatidylcholine were scraped from the plates and counted by liquid scintillation spectrometry. The amounts of [methyl^3H]choline chloride incorporated into saturated phosphatidylcholine were expressed as disintegrations per minute per milligram of protein.

WI38 cells [8] = conditions: 7 days, vs control; for change in PTHrP receptor mRNA expression: means±SE
whole lung tissue = conditions: nicotine 2 mg/kg i.p. once daily to dam, e6 to e20
[9] = 7d nicotine-only group, 7 days after nicotine 10^−9 M
[10] = nicotine 1×10^6 M (so in the source)

Question: Which “decrease in triglyceride uptake” value (WI38 cells [1]; nicotine 1×10^−9 M for 24 h) does the source give for `CN1CCCC1c1cccnc1` (stereo not drawn) [nicotine] here?
Answer: Its value is ~30%.

Question: What about the “decrease in triglyceride uptake” value (WI38 cells [1]; nicotine 1×10^−9 M for 7 days) of the same molecule?
Answer: The value was ~50%.

Question: What about the “decrease in PTHrP binding to its receptor” value (PTHrP receptor) of the same molecule?
Answer: The value was 30%.

Question: And the “expression of nACh receptors α3 and α7” value (WI38 cells [2])?
Answer: Its value is “significant increases”.

Question: What about the triolein uptake (WI38 cells [3]) of the same molecule?
Answer: Its triolein uptake is “significant decrease”.

Question: What about the “αSMA expression vs untreated controls” value (WI38 cells [4]; 7 days after stopping nicotine (Example 3)) of the same molecule?
Answer: The value was “significantly higher”.

Question: And the “expression of PTHrP receptor, PPARγ and ADRP vs untreated controls” value (WI38 cells [4]; [9])?
Answer: The value was “significantly lower”.

Question: What about the “expression of αSMA and calponin vs untreated controls” value (WI38 cells [4]; [9]) of the same molecule?
Answer: Its value is “significantly higher”.

Question: And the “PTHrP receptor expression vs untreated controls” value (WI38 cells [4]; nicotine 10^−9 M 7 days, then 7 days without nicotine (Example 3))?
Answer: Its value is “significantly lower”.

Question: And the “expression of αSMA and calponin” value (WI38 cells [4]; nicotine 7 days, p<0.001 vs control, n=3)?
Answer: Its value is “significant increases”.

Question: What about the “expression of PTHrP receptor, PPARγ and ADRP” value (WI38 cells [4]; nicotine 7 days, vs control, n=3) of the same molecule?
Answer: Its value is “significant decreases”.

Question: And the “[13C]glucose labeling of the acetyl-CoA pool” value (ATII cells [5]; in utero nicotine)?
Answer: The value was “modest increase”.

Question: And the “de novo palmitate synthesis as a function of total palmitate” value (ATII cells [5]; rat, in vivo)?
Answer: Its value is “almost doubled”.

Question: What about the “ribose synthesis via the nonoxidative transketolase pathway” value (ATII cells [5]; rat, in vivo) of the same molecule?
Answer: The value was “significant decrease”.

Question: What about the “ribose synthesis via the oxidative glucose-6-phosphate dehydrogenase pathway” value (ATII cells [5]; rat, in vivo) of the same molecule?
Answer: The value was “significant increase”.

Question: What about the “ATII cell proliferation, direct stimulation in vitro” value (ATII cells [6]) of the same molecule?
Answer: The value was “no effect”.

Question: What about the “[3H]choline incorporation into saturated phosphatidylcholine” value (ATII cells [7]) of the same molecule?
Answer: The value was “significantly increased”.

Question: What about the “change in PTHrP receptor mRNA expression” value (WI38 cells [8]; [10]) of the same molecule?
Answer: The value was 40±3%.

Question: What about the “change in ADRP mRNA expression” value (WI38 cells [8]; [10]) of the same molecule?
Answer: Its value is −47±4%.

Question: And the “change in PPAR mRNA expression” value (WI38 cells [8]; [10])?
Answer: The value was −37±3%.

Question: What about the “change in α-SMA mRNA expression” value (WI38 cells [8]; [10]) of the same molecule?
Answer: The value was “+140±5%”.

Question: And the “change in PTHrP receptor mRNA expression” value (WI38 cells [8]; nicotine 1×10^−9 M)?
Answer: Its value is −33±8%.

Question: What about the “change in ADRP mRNA expression” value (WI38 cells [8]; nicotine 1×10^−9 M) of the same molecule?
Answer: The value was −41±8%.

Question: What about the “change in PPAR mRNA expression” value (WI38 cells [8]; nicotine 1×10^−9 M) of the same molecule?
Answer: The value was −26±7%.

Question: And the “change in α-SMA mRNA expression” value (WI38 cells [8]; nicotine 1×10^−9 M)?
Answer: The value was “+38±4%”.

Question: What about the “αSMA mRNA expression in whole lung” value (whole lung tissue) of the same molecule?
Answer: Its value is “significant increase”.

Question: What about the “PTHrP receptor, PPARγ and ADRP mRNA expression in whole lung” value (whole lung tissue; vs controls, p<0.05) of the same molecule?
Answer: The value was “significant decrease”.
